In patent publication US20260176320A1, “MODULATORS OF G-PROTEIN COUPLED RECEPTORS” (priority 2018, published 2026):
Read-outs that look alike come from different tables or passages of the source.

What was measured:
Format in all cases: cell-based
GIP-R = biological target: T1, GIP-R (Homo sapiens, UniProt P48546); test: HitHunter cAMP assay (GIP-R); settings: cAMP; for Emax: read-out: (Emax) GIP-R; for Emax at 1 µM: read-out: (Emax) GIP-R at 1 μM, Table 3
T1 sequence (P48546 22-466): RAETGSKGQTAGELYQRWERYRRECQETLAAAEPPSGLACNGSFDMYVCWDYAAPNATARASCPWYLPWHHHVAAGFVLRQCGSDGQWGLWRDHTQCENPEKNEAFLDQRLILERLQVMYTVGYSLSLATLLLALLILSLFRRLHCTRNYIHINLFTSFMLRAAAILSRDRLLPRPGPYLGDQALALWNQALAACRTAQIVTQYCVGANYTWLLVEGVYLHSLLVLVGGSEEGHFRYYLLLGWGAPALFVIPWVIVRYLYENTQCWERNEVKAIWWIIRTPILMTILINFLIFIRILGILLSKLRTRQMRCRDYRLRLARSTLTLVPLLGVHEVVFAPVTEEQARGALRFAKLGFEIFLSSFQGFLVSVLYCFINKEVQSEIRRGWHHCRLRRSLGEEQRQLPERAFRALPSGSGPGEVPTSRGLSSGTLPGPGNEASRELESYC
Summary of the method: (§1)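 Luminescent readout of cAMP by enzyme-fragment immunocompetition gave agonist concentration-response data. Cells (10,000/well) sat in HBSS buffer containing IBMX 625 μM, HEPES 10 mM and BSA 0.2%, exposed to agonist for 30 min at room temperature.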

GLP-1R [1] = biological target: T2, GLP-1R (Homo sapiens, UniProt P43220); test: PathHunter β-arrestin assay
T2 sequence (P43220 24-463): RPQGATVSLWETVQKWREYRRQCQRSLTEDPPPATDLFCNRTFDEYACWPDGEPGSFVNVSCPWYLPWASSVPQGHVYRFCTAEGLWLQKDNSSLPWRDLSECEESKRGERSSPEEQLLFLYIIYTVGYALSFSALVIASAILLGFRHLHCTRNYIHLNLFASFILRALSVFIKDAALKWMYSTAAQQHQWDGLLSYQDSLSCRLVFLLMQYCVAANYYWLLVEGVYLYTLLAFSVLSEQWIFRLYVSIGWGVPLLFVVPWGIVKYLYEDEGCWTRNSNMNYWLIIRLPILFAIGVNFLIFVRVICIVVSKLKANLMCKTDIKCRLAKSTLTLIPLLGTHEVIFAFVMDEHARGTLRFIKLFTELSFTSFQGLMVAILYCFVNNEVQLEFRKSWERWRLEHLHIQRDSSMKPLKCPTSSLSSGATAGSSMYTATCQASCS
Summary of the method: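 Overnight-plated cells; 0.2% BSA medium; agonist 22-pt 2× dilution series, duplicate; 90 min, 37 °C/5% CO2; detection reagent 3 h RT, dark; luminescence.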

GLP-1R [2] = biological target: T2, GLP-1R; test: HitHunter cAMP assay (GLP-1R); settings: cAMP; for Emax: read-out: (Emax) GLP-1R
Summary of the method: as §1

[3] = Table 3, read-out: EC50 GIP-R/nM
[4] = Table 3A, read-out: EC50 GIP-R/nM
[5] = PathHunter β-arrestin assay, read-out: β-arrestin activity EC50
[6] = Table 3, read-out: EC50 GLP-1R/nM
[7] = Table 3A, read-out: EC50 GLP-1R/nM

Structure (SMILES)	EC50 (GIP-R; EC50 GIP-R/nM, Table 3) [nM]	EC50 (GIP-R; EC50 GIP-R/nM, Table 3A) [nM]	Emax (GIP-R; Table 3) [%]	Emax (GIP-R; Table 3A) [%]	EC50 (GLP-1R [1]) [nM]	EC50 (GLP-1R [2]; EC50 GLP-1R/nM, Table 3) [nM]	EC50 (GLP-1R [2]; EC50 GLP-1R/nM, Table 3A) [nM]	Emax (GLP-1R [2]; Table 3) [%]	Emax (GLP-1R [2]; Table 3A) [%]	EC50 (GIP-R; read-out: EC50 GIP-R/nM, Table 3A) [nM]	EC50 (GIP-R; [3]) [nM]	EC50 (GIP-R; [4]) [nM]	Emax at 1 µM (GIP-R) [%]	EC50 (GLP-1R [1]; [5]) [nM]	EC50 (GLP-1R [2]; [6]) [nM]	EC50 (GLP-1R [2]; [7]) [nM]
CCCCCCCCCCCCCCCC(=O)N[C@@H](CCC(=O)NCCCC[C@H](NC(=O)[C@H](CO)NC(=O)[C@@H]1CCCN1C(=O)[C@@H]1CCCN1C(=O)[C@@H]1CCCN1C(=O)[C@H](C)NC(=O)CNC(=O)[C@H](CO)NC(=O)[C@H](CO)NC(=O)[C@@H]1CCCN1C(=O)CNC(=O)CNC(=O)[C@H](C)NC(=O)[C@H](CC(C)C)NC(=O)[C@H](CC(C)C)NC(=O)[C@H](Cc1c[nH]c2ccccc12)NC(=O)[C@H](CC(N)=O)NC(=O)[C@@H](NC(=O)[C@H](Cc1ccccc1)NC(=O)[C@H](CCC(=O)O)NC(=O)C(C)(C)NC(=O)[C@H](C)NC(=O)[C@H](C)NC(=O)[C@H](CCC(N)=O)NC(=O)[C@H](CCCCN)NC(=O)[C@H](CC(=O)O)NC(=O)[C@H](CC(C)C)NC(=O)[C@H](Cc1ccc(O)cc1)NC(=O)[C@@H](NC(=O)[C@H](CO)NC(=O)[C@H](Cc1ccc(O)cc1)NC(=O)[C@H](CC(=O)O)NC(=O)[C@H](CO)NC(=O)[C@@H](NC(=O)[C@H](Cc1ccccc1)NC(=O)[C@@H](NC(=O)CNC(=O)[C@H](CCC(=O)O)NC(=O)CSCC(=O)NCCN1C[C@H](OC)CC1=O)[C@@H](C)O)[C@@H](C)O)[C@@H](C)CC)C(C)C)C(N)=O)C(=O)O [Compound 8]	1 to 10	1 to 10	57	57	> 1000	< 0.1	< 0.1	90	90							
CCCCCCCCCCCCCCCC(=O)N[C@@H](CCC(=O)NCCCC[C@H](NC(=O)[C@H](CO)NC(=O)[C@@H]1CCCN1C(=O)[C@@H]1CCCN1C(=O)[C@@H]1CCCN1C(=O)[C@H](C)NC(=O)CNC(=O)[C@H](CO)NC(=O)[C@H](CO)NC(=O)[C@@H]1CCCN1C(=O)CNC(=O)CNC(=O)[C@H](C)NC(=O)[C@H](CC(C)C)NC(=O)[C@H](CC(C)C)NC(=O)[C@H](Cc1c[nH]c2ccccc12)NC(=O)[C@H](CC(N)=O)NC(=O)[C@@H](NC(=O)[C@H](Cc1ccccc1)NC(=O)[C@H](CCC(=O)O)NC(=O)C(C)(C)NC(=O)[C@H](C)NC(=O)[C@H](C)NC(=O)[C@H](CCC(N)=O)NC(=O)[C@H](CCCCN)NC(=O)[C@H](CC(=O)O)NC(=O)[C@H](CC(C)C)NC(=O)[C@H](Cc1ccc(O)cc1)NC(=O)[C@@H](NC(=O)[C@H](CO)NC(=O)[C@H](Cc1ccc(O)cc1)NC(=O)[C@H](CC(=O)O)NC(=O)[C@H](CO)NC(=O)[C@@H](NC(=O)[C@H](Cc1ccccc1)NC(=O)[C@@H](NC(=O)CNC(=O)[C@H](CCC(=O)O)NC(=O)CSCC(=O)NCCN1CCNC(=O)C1=O)[C@@H](C)O)[C@@H](C)O)[C@@H](C)CC)C(C)C)C(N)=O)C(=O)O [Compound 24]	1 to 10	100 to 1000	15	15	> 1000	0.1 to 1	0.1 to 1	92	92							
CCCCCCCCCCCCCCCC(=O)N[C@@H](CCC(=O)NCCCC[C@H](NC(=O)[C@H](CO)NC(=O)[C@@H]1CCCN1C(=O)[C@@H]1CCCN1C(=O)[C@@H]1CCCN1C(=O)[C@H](C)NC(=O)CNC(=O)[C@H](CO)NC(=O)[C@H](CO)NC(=O)[C@@H]1CCCN1C(=O)CNC(=O)CNC(=O)[C@H](C)NC(=O)[C@H](CC(C)C)NC(=O)[C@H](CC(C)C)NC(=O)[C@H](Cc1c[nH]c2ccccc12)NC(=O)[C@H](CC(N)=O)NC(=O)[C@@H](NC(=O)[C@H](Cc1ccccc1)NC(=O)[C@H](CCC(=O)O)NC(=O)C(C)(C)NC(=O)[C@H](C)NC(=O)[C@H](C)NC(=O)[C@H](CCC(N)=O)NC(=O)[C@H](CCCCN)NC(=O)[C@H](CC(=O)O)NC(=O)[C@H](CC(C)C)NC(=O)[C@H](Cc1ccc(O)cc1)NC(=O)[C@@H](NC(=O)[C@H](CO)NC(=O)[C@H](Cc1ccc(O)cc1)NC(=O)[C@H](CC(=O)O)NC(=O)[C@H](CO)NC(=O)[C@@H](NC(=O)[C@H](Cc1ccccc1)NC(=O)[C@@H](NC(=O)CNC(=O)[C@H](CCC(=O)O)NC(=O)CSCC(=O)NCCN1CCCCS1(=O)=O)[C@@H](C)O)[C@@H](C)O)[C@@H](C)CC)C(C)C)C(N)=O)C(=O)O [Compound 40]	1 to 10		14 to 34	14 to 34	> 1000	0.1 to 1	0.1 to 1	101 to 105	101 to 105	1 to 1000						
CC[C@H](C)[C@H](NC(=O)[C@H](CO)NC(=O)[C@H](Cc1ccc(O)cc1)NC(=O)[C@H](CC(=O)O)NC(=O)[C@H](CO)NC(=O)[C@@H](NC(=O)[C@H](Cc1ccccc1)NC(=O)[C@@H](NC(=O)CNC(=O)[C@H](CCC(=O)O)NC(=O)COCC(=O)NCCN1C(=O)CSC1=O)[C@@H](C)O)[C@@H](C)O)C(=O)N[C@@H](Cc1ccc(O)cc1)C(=O)N[C@@H](CC(C)C)C(=O)N[C@@H](CC(=O)O)C(=O)N[C@@H](CCCCN)C(=O)N[C@@H](CCC(N)=O)C(=O)N[C@@H](C)C(=O)N[C@@H](C)C(=O)NC(C)(C)C(=O)N[C@@H](CCC(=O)O)C(=O)N[C@@H](Cc1ccccc1)C(=O)N[C@H](C(=O)N[C@@H](CC(N)=O)C(=O)N[C@@H](Cc1c[nH]c2ccccc12)C(=O)N[C@@H](CC(C)C)C(=O)N[C@@H](CC(C)C)C(=O)N[C@@H](C)C(=O)NCC(=O)NCC(=O)N1CCC[C@H]1C(=O)N[C@@H](CO)C(=O)N[C@@H](CO)C(=O)NCC(=O)N[C@@H](C)C(=O)N1CCC[C@H]1C(=O)N1CCC[C@H]1C(=O)N1CCC[C@H]1C(=O)N[C@@H](CO)C(=O)N[C@@H](CCCCN)C(N)=O)C(C)C [Compound 194]								98	98		> 1000	> 1000	12	> 1000	1 to 10	1 to 10
CCCCCCCCCCCCCCCC(=O)N[C@@H](CCC(=O)NCCCC[C@H](NC(=O)[C@H](CO)NC(=O)[C@@H]1CCCN1C(=O)[C@@H]1CCCN1C(=O)[C@@H]1CCCN1C(=O)[C@H](C)NC(=O)CNC(=O)[C@H](CO)NC(=O)[C@H](CO)NC(=O)[C@@H]1CCCN1C(=O)CNC(=O)CNC(=O)[C@H](C)NC(=O)[C@H](CC(C)C)NC(=O)[C@H](CC(C)C)NC(=O)[C@H](Cc1c[nH]c2ccccc12)NC(=O)[C@H](CC(N)=O)NC(=O)[C@@H](NC(=O)[C@H](Cc1ccccc1)NC(=O)[C@H](CCC(=O)O)NC(=O)C(C)(C)NC(=O)[C@H](C)NC(=O)[C@H](C)NC(=O)[C@H](CCC(N)=O)NC(=O)[C@H](CCCCN)NC(=O)[C@H](CC(=O)O)NC(=O)[C@H](CC(C)C)NC(=O)[C@H](Cc1ccc(O)cc1)NC(=O)[C@@H](NC(=O)[C@H](CO)NC(=O)[C@H](Cc1ccc(O)cc1)NC(=O)[C@H](CC(=O)O)NC(=O)[C@H](CO)NC(=O)[C@@H](NC(=O)[C@H](Cc1ccccc1)NC(=O)[C@@H](NC(=O)CNC(=O)[C@H](CCC(=O)O)NC(=O)CSCC(=O)NCCN1CCN(C)C(=O)C1=O)[C@@H](C)O)[C@@H](C)O)[C@@H](C)CC)C(C)C)C(N)=O)C(=O)O [Compound 30]	1 to 10	1 to 10	59	59	> 1000	0.1 to 1	0.1 to 1	97	97							
CC[C@H](C)[C@H](NC(=O)[C@H](CO)NC(=O)[C@H](Cc1ccc(O)cc1)NC(=O)[C@H](CC(=O)O)NC(=O)[C@H](CO)NC(=O)[C@@H](NC(=O)[C@H](Cc1ccccc1)NC(=O)[C@@H](NC(=O)CNC(=O)[C@H](CCC(=O)O)NC(=O)C[S+]([O-])CC(=O)NCCN1C(=O)CSC1=O)[C@@H](C)O)[C@@H](C)O)C(=O)N[C@@H](Cc1ccc(O)cc1)C(=O)N[C@@H](CC(C)C)C(=O)N[C@@H](CC(=O)O)C(=O)N[C@@H](CCCCN)C(=O)N[C@@H](CCC(N)=O)C(=O)N[C@@H](C)C(=O)N[C@@H](C)C(=O)NC(C)(C)C(=O)N[C@@H](CCC(=O)O)C(=O)N[C@@H](Cc1ccccc1)C(=O)N[C@H](C(=O)N[C@@H](CC(N)=O)C(=O)N[C@@H](Cc1c[nH]c2ccccc12)C(=O)N[C@@H](CC(C)C)C(=O)N[C@@H](CC(C)C)C(=O)N[C@@H](C)C(=O)NCC(=O)NCC(=O)N1CCC[C@H]1C(=O)N[C@@H](CO)C(=O)N[C@@H](CO)C(=O)NCC(=O)N[C@@H](C)C(=O)N1CCC[C@H]1C(=O)N1CCC[C@H]1C(=O)N1CCC[C@H]1C(=O)N[C@@H](CO)C(=O)N[C@@H](CCCCN)C(N)=O)C(C)C (stereo partly shown) [Compound 170]								99	99		> 1000	> 1000	5 to 8	> 1000	1 to 10	1 to 10
